Experimental data reported in patent publication US12662509B2, “Inhibitors of 17β-HSD7 and uses thereof” (UNIVERSITÉ LAVAL, priority 2021, dated 2026).

Columns and labels:
human T47D breast tumors = experiment: T47D xenograft tumor growth in OVX nude mice; assay type: in vivo; conditions: for growth of human T47D breast tumors, % of initial growth: OVX nude mice, INH7 groups 5 mg/kg/day + E1 0.1 μg/mice/day, E1, E2 groups 0.1 μg/mice/day
Description: FIG. 5—is an illustration of the effect of various inhibitors of 17 β-HSD1 (INH7-10 and INH7-464) on the growth of human T47D breast tumors in nude mice over a period of 22 days; illustration of the regression of T47D xenograft tumor growth in OVX nude mice by (cf. Table 2). The growth regression curves represent the decrease in tumor volume in response to INH7 (INH7-10 and INH7-464) treatment (Groups 4 and 5). […] Statistical significance by one-way ANOVA assay is shown by **P<0.01.
(§1) Female athymic nude mice (4 weeks) were ovariectomized under isoflurane-induced anesthesia. One week after ovariectomy (OVX), 5×10^6 MCF-7 cells or 10×10^6 T47D cells suspended in a […] mixture of Matrigel (BD)/culture medium (50:50) were administered by s.c. injection on both side of each mice. All mice were supplemented by daily s.c. injection 0.1 μg Estradiol (E2) for 5 weeks. […] The animals were euthanized on day 23, followed by the collection of tumor specimens and blood samples. The estrogen-sensitive organs (uterus and vagina), liver and kidney were removed and excised of fat and weighed. Tumor specimens were photographed and weighed.

[1] = system: human MCF-7 breast tumors; experiment: MCF-7 xenograft tumor growth in OVX nude mice; assay type: in vivo; conditions: for growth of human MCF-7 breast tumors, % of initial growth: OVX nude mice, INH7 groups 5 mg/kg/day + E1 0.1 μg/mice/day, E1, E2 groups 0.1 μg/mice/day
Description: FIG. 4—is an illustration of the effect of various inhibitors of 17 β-HSD1 (INH7-10 and INH7-464) on the growth of human MCF-7 breast tumors in nude mice over a period of 22 days; illustration of the regression of MCF-7 xenograft tumor growth in OVX nude mice (cf. Table 1). The growth regression curves represent the decrease in tumor volume in response to INH7 (INH7-10 and INH7-464) treatment (Groups 4 and 5). […] Tumor volume=0.52×(length×width^2). Statistical significance by one-way ANOVA assay is shown by **P<0.01.
as §1

[2] = Cytotoxicity on the MCF-7 cell line; assay type: cell-based; conditions: human, MCF-7 cells; incubation time 3 days; 1 nM-100 μM
Description: (§2) FIG. 9A—is an illustration of the cytotoxicity of the INH7-464 inhibitor on the MCF-7 cell line. FIG. 9B—is an illustration of the cytotoxicity of the INH7-464 inhibitor on the MCF-10A cell line. Paclitaxel (PTX) was used as the reference compound and was dissolved in DMSO for the stock solutions. The stock solutions were subsequently diluted at multiple concentrations with culture media in order to obtain the final desired concentrations ranging between 1 nM-100 μM. The incubation time was 3 days. The IC50 values (at which 50% of cell growth inhibition—concentration that inhibits 50% of cell proliferation—is observed) were calculated using an iterative least square regression method (cf. Table 3). The cytotoxicity values for the INH7-464 inhibitor were lower than those for Paclitaxel (PTX) in the different cell lines (cf. Table 3).
(§3) Paclitaxel (PTX) was used as a reference compound and was dissolved in DMSO for the stock solutions. The stock solutions were subsequently diluted at multiple concentrations with culture media in order to obtain the final desired concentrations ranging from 1 nM-100 μM. The incubation time was 3 days. The IC50 values (at which 50% of cell growth inhibition—concentration that inhibits 50% of cell proliferation—is observed) were calculated using an iterative least square regression method.

[3] = Cytotoxicity on the MCF-10A cell line; assay type: cell-based; conditions: human, MCF-10A cells; incubation time 3 days; 1 nM-100 μM
Description: as §2, §3

[4] = Body weight of nude mice during treatment of MCF-7 and T47D tumors; assay type: in vivo; conditions: MCF-7 and T47D tumor-bearing nude mice; 22 days; 5 mg/kg/day
Description: FIG. 6A—is an illustration of the body weight of the nude mice following treatment of human MCF-7 and T47D breast tumors with INH7-47 over a period of 22 days. […] (FIG. 6B) is an illustration of the body weight of the OVX nude mice (mice having undergone an ovariectomy) over a period of 22 days. The OVX mice were not treated with an INH7 inhibitor, but instead were subjected to daily subcutaneous (s.c.) injection with vehicle (0.4% methylcellulose/DMSO (92/8)).
as §1

MCF-7 cell proliferation = experiment: Effect of INH7 inhibitors on MCF-7 cell proliferation (DNA synthesis, 144 hours, E1 0.1 nM); assay type: cell-based, human; conditions: 2 μM
Description: FIG. 1—is an illustration of the effect of various inhibitors of […] (INH7-10, INH7-81 and INH7-464) on MCF-7 cell proliferation over a period of 144 hours.
The effects of various inhibitors, including INH7-464, on MCF-7 cell proliferation over a period of 144 hours is illustrated in FIG. 1. The hormone source E1 (Estrone) was provided at 0.1 nM. Data are reported as % of DNA synthesis vs Control (0.1 nM E1) (100%). Quadruple wells were used for each condition and repeated in three independent experiments. Error bars represent SD. *, P<0.05 vs control; **, P<0.001 vs. control by Student's test.

[5] = Toxicity of INH7-464 in mice, weekly s.c. injection over 21 days; assay type: in vivo
Description: FIG. 10—is an illustration of the toxicity of the INH7-464 inhibitor in mice (8 mice/group) at various concentrations over a period of 21 days. Control Group: 0.4% methylcellulose/DMSO (92/8). INH7-464 group: Day 1: 20 mg/kg (INH7-464); Day 8: 30 mg/kg (INH7-464); Day 15: 60 mg/kg (INH7-464). […] Statistical significance by T-test is shown by ***P<0.001.
FIG. 11—is an illustration of the effect (toxicity) of the INH7-464 inhibitor on the liver, kidney, ovary and uterus weight, as per the toxicity experiment illustrated in FIG. 10.
INH7-464 was administered by s.c. injection. INH7-464 was first dissolved in DMSO, followed by the addition of 0.4% methylcellulose to obtain a final 8% concentration of co-solvent (methylcellulose/DMSO (92/8). The injected volume was 0.1 mL (s.c.). […] All the mice were weighed every day. The liver, kidney, ovaries, and uterus were collected and weighed following 3 weeks of treatment.

Row | SMILES | growth of human T47D breast tumors, % of initial growth (human T47D breast tumors; day 0) | growth of human T47D breast tumors, % of initial growth (human T47D breast tumors; day 5) | growth of human T47D breast tumors, % of initial growth (human T47D breast tumors; day 9) | growth of human T47D breast tumors, % of initial growth (human T47D breast tumors; day 12) | growth of human T47D breast tumors, % of initial growth (human T47D breast tumors; day 15) | growth of human T47D breast tumors, % of initial growth (human T47D breast tumors; day 19) | growth of human T47D breast tumors, % of initial growth (human T47D breast tumors; day 22) | growth of human MCF-7 breast tumors, % of initial growth ([1]; day 0) | growth of human MCF-7 breast tumors, % of initial growth ([1]; day 5) | growth of human MCF-7 breast tumors, % of initial growth ([1]; day 9) | growth of human MCF-7 breast tumors, % of initial growth ([1]; day 12) | growth of human MCF-7 breast tumors, % of initial growth ([1]; day 13) | growth of human MCF-7 breast tumors, % of initial growth ([1]; day 19) | growth of human MCF-7 breast tumors, % of initial growth ([1]; day 22) | IC50 at 3 days [2] | IC50 at 3 days [3] | other results
1 | C[C@]12CC[C@@H]3c4ccc(O)cc4CC[C@H]3[C@@H]1CCC2=O [E1, Estrone] | 100% | 93.64% | 113.43% | 112.0519% | 122.0034% | 112.9356% | 112.831% | 100% | 102.886% | 100.227% | 109.033% | 95.3089% | 100.249% | 102.648% |  |  | 
2 | CC(=O)O[C@H]1C(=O)[C@@]2(C)[C@H]([C@H](OC(=O)c3ccccc3)[C@]3(O)C[C@H](OC(=O)[C@H](O)[C@@H](NC(=O)c4ccccc4)c4ccccc4)C(C)=C1C3(C)C)[C@]1(OC(C)=O)CO[C@@H]1C[C@@H]2O [Paclitaxel (PTX), Paclitaxel] |  |  |  |  |  |  |  |  |  |  |  |  |  |  | 3.08 nM | 0.637 nM | 
3 | C[C@]12CC[C@@H]3c4ccc(O)cc4CC[C@H]3[C@@H]1CC[C@@H]2O [E2, Estradiol] | 100% | 112.55% | 120.84% | 121.306% | 150.417% | 144.117% | 138.919% | 100% | 82.8535% | 97.2662% | 131.541% | 123.252% | 108.413% | 120.974% |  |  | 
4 | CCCCCCCCCN1C[C@]2(CC[C@H]3[C@@H]4CC[C@H]5NC(=O)CC[C@]5(C)[C@H]4CC[C@@]32C)OC1=O [INH7-464, (4aR,4bS,6aS,7R,9aS,9bR,11aR)-4a,6a-dimethyl-3′-nonyltetradecahydrospiro [indeno[5,4-f]quinoline-7,5′-oxazolidine]-2,2′(1H)-dione] | 100% | 100.51% | 78.1158% | 76.9139% | 63.5165% | 67.9195% | 50.9558% | 100% | 88.1406% | 81.8741% | 84.2617% | 66.5956% | 67.8843% | 59.6876% | 582 nM | 2670 nM | body weight of the nude mice [4]: absence of weight loss; decrease in the tumor size relative to the control (E1) (human T47D breast tumors; T47D xenograft model, day 22, 5 mg/kg/day): 51%±5%; decrease in the tumor size relative to the control (E1) ([1]; MCF-7 xenograft model, day 22, 5 mg/kg/day): 60%±5%; inhibition of MCF-7 cell proliferation (% of DNA synthesis vs control 0.1 nM E1) (MCF-7 cell proliferation): significant inhibition at 2 μM; tolerability after weekly subcutaneous injection ([5]; 8/group, 20-60 mg/kg weekly s.c. for 3 weeks (21 days)): very well tolerated; apparent toxicity ([5]; 20-60 mg/kg weekly (s.c.)): no apparent toxicity; weight changes of liver, kidney, ovary and uterus ([5]; after 3 weeks of weekly s.c. 20, 30 and 60 mg/kg): no significant weight changes
